Experiments:
DU145 (prostate cancer) = experiment: Effect on tumor cell lines, viable cell count by trypan blue exclusion (Latham et al.): DU145; format: cell-based; conditions: Homo sapiens, DU-145, 96 h, DU145 prostate cancer cells, viable cell count 96 hours after treatment
Protocol: (§1) The effect of the compounds of the invention on tumor cells was determined by the assay described by Latham et al., Oncogene 12:827-837 (1996). Tumor cells DU145 (prostate cancer), K562 (chronic myelogenous leukaemia), BT20 (breast carcinoma), H157 (non small cell lung carcinoma), or DLD1 (colon carcinoma) were plated in 6-well dishes at a cell density of 1.0×10^5 cells per 35-mm^2 well. […] The total number of viable cells was determined 96 hours later by trypsinizing the wells and counting the number of viable cells, as determined by trypan blue exclusion, using a hemacytometer. Normal HFL cells were treated with the same compounds under the same conditions of concentration and time.

[1] = test system: K562 (chronic myelogenous leukaemia); experiment: Effect on tumor cell lines, viable cell count by trypan blue exclusion (Latham et al.): K562; format: cell-based; conditions: Homo sapiens, K562, 96 h, K562 chronic myelogenous leukaemia cells, viable cell count 96 hours after treatment
Protocol: as §1

Row | SMILES | IC50 (DU145 (prostate cancer)) [µM] | IC50 [1] [µM] | melting point [°C]
1 | N#C/C(=C\c1ccccc1OCc1ccccc1)S(=O)(=O)Nc1ccc(F)cc1 [Example 230] | 25 to 50 | 10 to 25 | 127 to 129
2 | COc1ccc(CS(=O)(=O)/C(C#N)=C/c2ccc(Cl)c(Cl)c2Cl)cc1 [Example 146] | 50 to 100 | 25 to 50 | 136 to 138
3 | COc1ccc(/C=C(\C#N)S(=O)(=O)Nc2ccc(C)cc2C)cc1 [Example 270] | > 100 | > 100 | 127 to 129
4 | N#C/C(=C\c1ccoc1)S(=O)(=O)Cc1ccc(Cl)cc1 [Example 122] | > 100 | > 100 | 150 to 154
5 | COc1ccc(/C=C(\C#N)S(=O)(=O)Cc2ccc(Cl)cc2Cl)c(O)c1 [Example 113] | > 100 | > 100 | 242 to 247
6 | N#C/C(=C\c1c(F)c(F)c(F)c(F)c1F)S(=O)(=O)Nc1ccc(F)cc1 [Example 234] | 1 to 10 | < 1 | 150 to 152
7 | Cc1ccc(NS(=O)(=O)/C(C#N)=C/c2ccc(Cl)cc2)c(C)c1 [Example 267] | 50 to 100 | 50 to 100 | 158 to 161
8 | N#C/C(=C\c1ccc(O)c([N+](=O)[O-])c1)S(=O)(=O)Cc1ccccc1 [Example 139] | > 100 | 50 to 100 | 159 to 162
9 | Cc1ccsc1/C=C(\C#N)S(=O)(=O)Nc1ccc(F)cc1 [Example 236] | > 100 | 50 to 100 | 179 to 181
10 | COc1ccccc1/C=C(\C#N)S(=O)(=O)Nc1ccccc1Oc1ccccc1 [Example 199] | > 100 | 50 to 100 | 116 to 118
11 | COc1cc(/C=C(\C#N)S(=O)(=O)Cc2ccc(Cl)cc2)cc(OC)c1 [Example 56] | 50 to 100 | 25 to 50 | 155 to 165
12 | N#C/C(=C\c1ccc(Cl)cc1)S(=O)(=O)Cc1ccc(Cl)cc1Cl [Example 100] | > 100 | > 100 | 119 to 125
13 | COc1ccc(CS(=O)(=O)/C(C#N)=C/c2ccc(OC)cc2OC)cc1 [Example 147] | > 100 | > 100 | 156 to 160
14 | N#C/C(=C\c1cc(Cl)cc(Cl)c1Cl)S(=O)(=O)Nc1ccc(F)cc1 [Example 243] | 10 to 25 | 10 to 25 | 184 to 186
15 | COc1cc(OC)c(/C=C(\C#N)S(=O)(=O)Cc2ccc(OC)c(N)c2)c(OC)c1 [Example 36] | 25 | 5 | 198 to 200
16 | N#C/C(=C\c1ccccc1OCc1ccccc1)S(=O)(=O)Cc1ccccc1 [Example 137] | > 100 | 50 to 100 | 93 to 97
17 | CN(C)c1ccc(/C=C(\C#N)S(=O)(=O)Nc2ccc(Br)cc2)cc1 [Example 216] | 50 to 100 | 25 to 50 | 190 to 192
18 | COc1ccc(/C=C(\C#N)S(=O)(=O)Nc2ccc(C)cc2C)c(OC)c1OC [Example 272] | > 100 | > 100 | 124 to 125
19 | COc1ccc(OC)c(/C=C(\C#N)S(=O)(=O)Cc2ccc(Cl)cc2Cl)c1 [Example 106] | 50 to 100 | 50 to 100 | 132 to 137
20 | Cc1ccc(/C=C(\C#N)S(=O)(=O)Cc2ccc(Cl)cc2Cl)cc1C [Example 97] | > 100 | > 100 | 126 to 142

Row | SMILES | IC50 (DU145 (prostate cancer)) [µM] | IC50 [1] [µM] | melting point [°C]
21 | Cc1ccc(NS(=O)(=O)/C(C#N)=C/c2ccc(Br)cc2)c(C)c1 [Example 262] | 25 to 50 | 10 to 25 | 164 to 166
22 | N#C/C(=C\c1ccc(Cl)c(Cl)c1Cl)S(=O)(=O)Cc1ccc(Cl)cc1 [Example 62] | > 100 | 50 to 100 | 145 to 155
23 | CCOc1ccc(/C=C(\C#N)S(=O)(=O)Nc2ccccc2Oc2ccccc2)cc1OC [Example 211] | 1 to 10 | 1 to 10 | 142 to 144
24 | N#C/C(=C\c1c[nH]c2ccc(Br)cc12)S(=O)(=O)Cc1ccc(Cl)cc1 [Example 72] | > 100 | > 100 | 240 to 250
25 | N#C/C(=C\c1ccc(Br)cc1)S(=O)(=O)Cc1ccc(Cl)cc1Cl [Example 98] | 50 to 100 | 25 to 50 | 126 to 138
26 | N#C/C(=C\c1c(F)c(F)c(F)c(F)c1F)S(=O)(=O)Cc1ccc(Cl)cc1 [Example 21] | 50 | 25 | 154 to 156
27 | Cc1ccoc1/C=C(\C#N)S(=O)(=O)Cc1cccc(Br)c1 [Example 114] | > 100 | > 100 | 122 to 126
28 | Cc1ccc(/C=C(\C#N)S(=O)(=O)Nc2ccc(F)cc2)cc1C [Example 244] | > 100 | > 100 | 141 to 142
29 | N#C/C(=C\c1cccc(O)c1)S(=O)(=O)Cc1ccccc1 [Example 124] | > 100 | 50 to 100 | 132 to 135
30 | COc1cccc(OC)c1/C=C(\C#N)S(=O)(=O)Cc1ccc(Br)cc1 [Example 18] | 25 | 10 | 156 to 158
31 | N#C/C(=C\c1ccc(O)cc1O)S(=O)(=O)Cc1ccc(Cl)cc1Cl [Example 92] | 50 to 100 | 25 to 50 | 220 to 230
32 | N#C/C(=C\c1c[nH]c2ccccc12)S(=O)(=O)Nc1ccc(Br)cc1 [Example 214] | 50 to 100 | 25 to 50 | 208 to 210
33 | COc1cc(OC)c(/C=C(\C#N)S(=O)(=O)Nc2ccc(F)cc2)c(OC)c1 [Example 232] | 50 to 100 | 25 to 50 | 169 to 171
34 | COc1ccc(CS(=O)(=O)/C(C#N)=C/c2c(F)c(F)c(F)c(F)c2F)cc1OS(=O)(=O)c1ccc(C)cc1 [Example 38, (E)-2-[(4-methoxy-3-(4-methylphenylsulfonyloxy)phenyl)methanesulfonyl]-3-(2,3,4,5,6-pentafluorophenyl)acrylonitrile] | > 100 | 50 to 100 | 170 to 172
35 | COc1ccc(/C=C(\C#N)S(=O)(=O)Cc2ccc(F)cc2)cc1O [Example 80] | > 100 | 50 to 100 | 193 to 205
36 | Cc1ccc(/C=C(\C#N)S(=O)(=O)Cc2ccc(Cl)cc2)cc1C [Example 66] | 50 to 100 | 50 to 100 | 191 to 202
37 | N#C/C(=C\c1ccc(Br)cc1)S(=O)(=O)Nc1ccc(Br)cc1 [Example 217] | 50 to 100 | 25 to 50 | 174 to 176
38 | COc1ccc(/C=C(\C#N)S(=O)(=O)Nc2ccc(Cl)cc2)cc1 [Example 195] | 50 to 100 | 50 to 100 | 94 to 96
39 | COc1ccc(NS(=O)(=O)/C(C#N)=C/c2c[nH]c3ccccc23)cc1 [Example 278] | 50 to 100 | 50 to 100 | 201 to 205
40 | COc1ccc(NS(=O)(=O)/C(C#N)=C/c2ccc(OC)c(OC)c2OC)cc1 [Example 285] | > 100 | 50 to 100 | 140 to 142
